The values that follow are results of earlier work, collected in patent publication US20090191287A1, “Mitigation of Inflammation-Related Injuries” (priority 2008, published 2009).

One series relates to heart infarct. The following applies: dogs pretreated with allopurinol; control dogs 40%.
Another series deals with myocardium at risk. As to conditions: allopurinol-pretreated dogs, left anterior descending artery ligated; control group 23%.
In series [1] the test system is high-risk coronary surgery patients. As to conditions: high-risk coronary surgery patients pretreated before operating; placebo 17%.

For `Oc1ncnc2[nH]ncc12` [allopurinol], the heart infarct size in the series on heart infarct is listed as 22%. The “myocardium at risk destroyed (myocardial necrosis)” value with myocardium at risk is given as 9%. In series [1], the mortality rate is 4%.
